Measured values as given in patent US5162328A, “N-[3-[2-(1H-imidazol-1-yl)ethoxy]phenyl]-4-(2-thienyl)-2-pyrimidinamine and pharmacologically acceptable salts” (American Cyanamid Company, priority 1991, dated 1992).

Test system: immunologically stimulated human basophils
Assay: Inhibition of histamine release from immunologically stimulated human basophils
Type: cell-based
Conditions: for IC50: Homo sapiens
Text: The bronchospasm of allergic asthma is a consequence of the release of mediators, such as histamine and slow-reacting substances from mast cells. The role of mediator release in the induction of an asthmatic attack has been fully reviewed and documented; see […]. and Austen, K. F., Bronchial Asthma Mechanisms and Therapeutics, E. B. Weiss, Editor, Little, Brown and Company, Boston, 163, (1976); Lichtenstein, L. M., Asthma-Physiology, Immunopharmacology and Treatment, Second International Symposium, L. M. Lichtenstein and K. F. Austen, Editors, Academic Press, New York, 51, (1979); and Bell, S. C., et al., Annular Reports in Medicinal Chemistry, 14, 51, H. J. Hess, Editor, Academic Press, New York, (1979). The novel compounds of this invention have been tested by the procedure of Lichtenstein, L. M. and Osler, A. G., J. Exp. […] Dissolve 140.3 g of sodium chloride, 7.45 g of Trizma-Tris Pre-Set, Reagent Grade, pH 7.6 at 25° C. (Sigma Chemical Co.) in sufficient water to give a final volume of 2 liters. (Sigma chemical Co.) (30 mg/ml) Made to 0.075M and 0.5M respectively, with calcium chloride dihydrate and magnesium chloride hexahydrate. A 10 ml portion of 10× Tris Buffer and 1.0 ml of human albumin are diluted to 100 ml with water. A 10 ml portion of 10× Tris Buffer, 1.0 ml of human albumin, 0.8 ml of calcium stock and 0.2 ml of magnesium stock are diluted to 100 ml with water. Behring Diagnostics (Generally used at 10 μg protein/ml final concentration). Strength 1:100 (w:v) allergenic extract, Hollister-Stier Labs. Generally this is diluted 1:1000 to 1:10,000 (considering the vial as stock). Interdermal solutions or intramuscular preparations for hyposensitization, Hollister-Stier Labs. The final concentrations used are on the order of 1 PNU/ml. Using four 20 ml heparinized tubes, […] of blood are withdrawn from subjects with known histamine release to anti-IgE, ragweed antigen or other specific allergen. These 80 ml of blood are mixed with 20 ml of saline containing 0.6 g of dextrose and 1.2 g of dextran. The blood is allowed to sediment at room temperature in two 50 ml polycarbonate centrifuge tubes until a sharp interface develops between the red cells and plasma (60-90 minutes). The plasma, containing the leukocytes, (top) layer from each tube, is withdrawn by pipet and transferred to 50 ml polycarbonate tubes. The plasma is centrifuged for 8 minutes at 110× G at 4° C. The supernatant is carefully poured off as completely as possible and the cell button is resuspended in 2-3 ml of Tris-A buffer using a siliconized Pasteur pipet. The resuspension is accomplished by drawing the liquid gently in an out of the pipet, with the tip below the liquid until an even suspension of cells is obtained. […]

| IC50 [nM] | Structure (SMILES) | activity in basophil histamine release assay (in words) (compared with the two compounds of U.S. Pat. No. 4,788,195) |
| --- | --- | --- |
| – | c1cc(Nc2nccc(-c3cccs3)n2)cc(OCCn2ccnc2)c1 [N-[3-[2-(1H-imidazol-1-yl)ethoxy]phenyl]-4-(2-thienyl)-2-pyrimidinamine] | essentially equivalent high activity |
| 200 ± 20 | CCN(CC)CCOc1ccc(Nc2nccc(-c3ccncc3)n2)cc1.Cl.Cl [Compound 3, N-[4-[2-(diethylamino)ethoxy]phenyl]-4-(4-pyridinyl)-2-pyrimidinamine dihydrochloride, reference compound] | – |
| 900 | Cc1cc(Nc2nccc(-c3ccncc3)n2)ccc1N.Cl.Cl [Compound 2, 2-methyl-N^4-[4-(4-pyridinyl)-2-pyrimidinyl]-1,4-benzenediamine dihydrochloride, reference compound] | – |
